Read-outs that look alike come from different tables or passages of the source. Positions of bridges follow the written chain, without caps; N, C: chain ends. Residues, ends and D or L forms follow the SMILES beside them.
Legend:
Type in all cases: binding
[1] = target: T1, FGF-R1C ECD (Homo sapiens, UniProt P11362); assay: biochemical; set-up: DNA constructs for the extracellular domain (ECD) of human FGF-; HPC4 (C); made in house; host or cells: HEK 293-6E
T1 sequence (P11362 22-376 limits assumed): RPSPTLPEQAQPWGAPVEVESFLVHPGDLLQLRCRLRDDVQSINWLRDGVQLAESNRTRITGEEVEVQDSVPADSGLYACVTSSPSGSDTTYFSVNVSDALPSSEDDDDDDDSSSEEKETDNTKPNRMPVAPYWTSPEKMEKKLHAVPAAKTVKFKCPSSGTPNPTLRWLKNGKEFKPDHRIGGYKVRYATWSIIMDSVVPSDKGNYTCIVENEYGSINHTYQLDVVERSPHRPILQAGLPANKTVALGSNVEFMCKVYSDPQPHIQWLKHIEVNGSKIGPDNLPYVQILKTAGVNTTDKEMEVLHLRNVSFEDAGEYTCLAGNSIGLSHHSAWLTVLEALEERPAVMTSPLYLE
Procedure, shortened: (§1)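 Biolayer interferometry with biotinylated FGF-R ECD on streptavidin biosensors in PBS pH 7.4, 0.05% Tween-20, 0.01% BSA. Multi-concentration: purified peptide dilution series fitted to a multi-point KD model.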

[2] = target: T2, FGF-R3C ECD (Homo sapiens, UniProt P22607); assay: biochemical; set-up: DNA constructs for the extracellular domain (ECD) of human FGF-; HPC4 (C); made in house; host or cells: HEK 293-6E
T2 sequence (P22607 23-375 limits assumed): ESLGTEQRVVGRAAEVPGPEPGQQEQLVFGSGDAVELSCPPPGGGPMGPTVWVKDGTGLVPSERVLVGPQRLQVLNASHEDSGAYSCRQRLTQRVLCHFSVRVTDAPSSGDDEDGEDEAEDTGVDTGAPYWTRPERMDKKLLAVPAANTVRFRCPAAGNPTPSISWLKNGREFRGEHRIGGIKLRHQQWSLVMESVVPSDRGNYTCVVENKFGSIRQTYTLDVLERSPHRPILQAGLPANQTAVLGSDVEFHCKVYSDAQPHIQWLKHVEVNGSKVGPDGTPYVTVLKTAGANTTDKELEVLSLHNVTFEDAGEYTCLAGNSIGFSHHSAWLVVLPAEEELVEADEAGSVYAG
Procedure, shortened: as §1

[3] = target: T3, FGF-R4 ECD (Homo sapiens, UniProt P22455); assay: single concentration BLI of crude peptides; settings: read-out: KD (4)
T3 construct: DNA constructs for the extracellular domain (ECD) of human FGF-; HPC4 (C); made in house; host or cells: HEK 293-6E
T3 sequence (P22455 22-369 limits assumed): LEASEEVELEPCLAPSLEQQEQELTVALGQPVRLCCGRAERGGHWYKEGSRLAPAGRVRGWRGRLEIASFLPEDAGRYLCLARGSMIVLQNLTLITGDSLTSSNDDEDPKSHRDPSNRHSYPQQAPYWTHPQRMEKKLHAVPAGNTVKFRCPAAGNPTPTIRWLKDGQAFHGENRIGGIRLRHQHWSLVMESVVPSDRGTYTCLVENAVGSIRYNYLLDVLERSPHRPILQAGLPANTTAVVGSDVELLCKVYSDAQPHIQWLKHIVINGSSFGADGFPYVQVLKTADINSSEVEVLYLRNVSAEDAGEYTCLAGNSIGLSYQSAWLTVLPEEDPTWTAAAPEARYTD
Procedure, shortened: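 Streptavidin biosensors carrying biotinylated FGF receptor ECD were immersed in peptide (~1 μM for crude single-point runs, a concentration series for purified peptides) and then in peptide-free buffer. KD was obtained by fitting the BLI association and dissociation curves.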

[4] = crude T18 selection 1 (1:1:1) peptides, single concentration BLI (Table S4)

SMILES | Kd [1] | Kd [2] | Kd [3, 4] | Kd ([3]; crude NNK peptides, single concentration BLI (Table S3))
CSCC[C@H](NC(C)=O)C(=O)N[C@H]1CSSC[C@@H](C(=O)NCC(=O)N[C@@H](CO)C(=O)NCC(=O)N[C@@H](CO)C(=O)N[C@@H](CC(=O)O)C(=O)N[C@@H](Cc2ccc(O)cc2)C(=O)N[C@@H](CCCCN)C(=O)N[C@@H](CC(=O)O)C(=O)N[C@@H](CC(=O)O)C(=O)N[C@@H](CC(=O)O)C(=O)N[C@@H](CC(=O)O)C(=O)N[C@@H](CCCCN)C(N)=O)NC(=O)[C@H](Cc2ccc(O)cc2)NC(=O)[C@H](Cc2ccccc2)NC(=O)[C@H](Cc2c[nH]c3ccccc23)NC(=O)[C@H](CCCCN)NC(=O)[C@H](Cc2ccc(O)cc2)NC(=O)[C@H](Cc2c[nH]c3ccccc23)NC(=O)[C@H](CCC(N)=O)NC(=O)[C@H](CC(C)C)NC(=O)[C@H]([C@@H](C)O)NC(=O)[C@H](C)NC(=O)[C@H](Cc2ccc(O)cc2)NC(=O)[C@H](CCCCN)NC1=O (Ac-MCKYATLQWYKWFYCGSGSDYKDDDDK-NH2; disulfide 2-15) | 0.114 µM | 7.34 µM | 0.063 µM | 
CSCC[C@H](NC(C)=O)C(=O)N[C@H]1CSSC[C@@H](C(=O)NCC(=O)N[C@@H](CO)C(=O)NCC(=O)N[C@@H](CO)C(=O)N[C@@H](CC(=O)O)C(=O)N[C@@H](Cc2ccc(O)cc2)C(=O)N[C@@H](CCCCN)C(=O)N[C@@H](CC(=O)O)C(=O)N[C@@H](CC(=O)O)C(=O)N[C@@H](CC(=O)O)C(=O)N[C@@H](CC(=O)O)C(=O)N[C@@H](CCCCN)C(N)=O)NC(=O)[C@H](Cc2c[nH]c3ccccc23)NC(=O)[C@H](CC(C)C)NC(=O)[C@H](CCCNC(=N)N)NC(=O)[C@H](Cc2ccc(O)cc2)NC(=O)[C@H](CC(C)C)NC(=O)[C@H](Cc2c[nH]c3ccccc23)NC(=O)[C@H](CC(C)C)NC(=O)[C@H](CC(=O)O)NC(=O)[C@H](CCCCN)NC(=O)[C@H](CO)NC(=O)[C@H](Cc2ccc(O)cc2)NC(=O)[C@H](CCCCN)NC1=O (Ac-MCKYSKDLWLYRLWCGSGSDYKDDDDK-NH2; disulfide 2-15) | > 10 µM | > 10 µM | 0.002 µM | 
CC[C@H](C)[C@@H]1NC(=O)[C@H](CO)NC(=O)[C@H]([C@@H](C)CC)NC(=O)[C@H](CC(C)C)NC(=O)[C@@H](NC(=O)[C@H](CCSC)NC(C)=O)CSSC[C@@H](C(=O)NCC(=O)N[C@@H](CO)C(=O)NCC(=O)N[C@@H](CO)C(=O)N[C@@H](CC(=O)O)C(=O)N[C@@H](Cc2ccc(O)cc2)C(=O)N[C@@H](CCCCN)C(=O)N[C@@H](CC(=O)O)C(=O)N[C@@H](CC(=O)O)C(=O)N[C@@H](CC(=O)O)C(=O)N[C@@H](CC(=O)O)C(=O)N[C@@H](CCCCN)C(N)=O)NC(=O)[C@H](Cc2c[nH]cn2)NC(=O)[C@H](CCCCN)NC(=O)[C@H](CC(C)C)NC(=O)[C@H](C(C)C)NC(=O)[C@H](CCCCN)NC(=O)[C@H](Cc2ccc(O)cc2)NC1=O (Ac-MCLISIYKVLKHCGSGSDYKDDDDK-NH2; disulfide 2-13) | > 10 µM | > 10 µM |  | > 10 µM
CSCC[C@H](NC(C)=O)C(=O)N[C@H]1CSSC[C@@H](C(=O)NCC(=O)N[C@@H](CO)C(=O)NCC(=O)N[C@@H](CO)C(=O)N[C@@H](CC(=O)O)C(=O)N[C@@H](Cc2ccc(O)cc2)C(=O)N[C@@H](CCCCN)C(=O)N[C@@H](CC(=O)O)C(=O)N[C@@H](CC(=O)O)C(=O)N[C@@H](CC(=O)O)C(=O)N[C@@H](CC(=O)O)C(=O)N[C@@H](CCCCN)C(N)=O)NC(=O)[C@H](Cc2c[nH]cn2)NC(=O)[C@H](Cc2c[nH]c3ccccc23)NC(=O)[C@H](Cc2ccc(O)cc2)NC(=O)[C@@H]2CCCN2C(=O)[C@H](CCC(=O)O)NC(=O)[C@H](Cc2ccc(O)cc2)NC(=O)[C@H](CC(C)C)NC(=O)[C@H](Cc2c[nH]cn2)NC(=O)[C@H](CCCNC(=N)N)NC(=O)[C@H](CC(C)C)NC1=O (Ac-MCLRHLYEPYWHCGSGSDYKDDDDK-NH2; disulfide 2-13) | > 10 µM | > 10 µM | > 10 µM | 

From article PMC10763615, “Identification and engineering of potent cyclic peptides with selective or promiscuous binding through biochemical profiling and bioinformatic data analysis” (RSC Chemical Biology, 2023)
